Biological target: Paired box protein Pax-2 (Homo sapiens, UniProt Q02962)
Test: Inhibition of pax2 (unknown origin) in human SK-OV-3 cells measured after 24 hrs by immunoblotting analysis

Sequence of Paired box protein Pax-2 (Q02962 whole entry): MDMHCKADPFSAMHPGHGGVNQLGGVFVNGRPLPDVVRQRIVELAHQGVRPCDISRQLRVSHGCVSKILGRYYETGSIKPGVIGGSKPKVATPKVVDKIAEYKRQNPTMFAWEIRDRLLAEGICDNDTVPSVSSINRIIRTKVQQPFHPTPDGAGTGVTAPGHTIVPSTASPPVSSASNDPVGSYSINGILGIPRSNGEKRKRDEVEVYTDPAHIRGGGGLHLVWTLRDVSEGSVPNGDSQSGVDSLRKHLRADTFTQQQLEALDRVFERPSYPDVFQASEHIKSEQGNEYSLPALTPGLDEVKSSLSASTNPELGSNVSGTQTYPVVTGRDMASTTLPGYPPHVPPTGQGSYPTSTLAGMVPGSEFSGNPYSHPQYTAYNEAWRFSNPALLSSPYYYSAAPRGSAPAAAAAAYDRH

In the case of Cc1ccc(C)c(N2CCN(c3c(C)c(C)nc4ncnn34)CC2)c1, the IC50 is reported as 1500 nM.

From BindingDB's records for doi:10.1016/j.ejmech.2023.115101 (n/a, 2023)
